From the NIST ThermoML archive (doi:10.1021/je500513b)

Assay: mn = molality of the nth substance listed, in mol/kg
Details: for surface tension liquid-gas: Pendant drop shape; for electrical conductivity: 100 kPa, Liquid, Mettler Toledo inLab 710

CCCCCCCCCCCC[N+](C)(C)CCC[N+](C)(C)CCCCCCCCCCCC.[Br-].[Br-] + O
Details	electrical conductivity, 298.15 K [S/m]	electrical conductivity, 303.15 K [S/m]	electrical conductivity, 308.15 K [S/m]	electrical conductivity, 313.15 K [S/m]	electrical conductivity, 318.15 K [S/m]	electrical conductivity, 323.15 K [S/m]	surface tension liquid-gas, 298.15 K [mN/m]
m1 = 0.0001	–	–	–	–	–	–	60.28
m1 = 0.0002	–	–	–	–	–	–	51.37
m1 = 0.0004	–	–	–	–	–	–	41.67
m1 = 0.00057	0.0117	0.0131	–	0.0152	0.0174	–	–
m1 = 0.00059	–	–	–	–	–	0.0191	–
m1 = 0.0006	–	–	–	–	–	–	36.01
m1 = 0.00061	0.0126	0.0139	–	0.0168	0.0186	–	–
m1 = 0.00063	–	–	–	–	–	0.0203	–
m1 = 0.00064	0.0132	0.0146	0.0159	0.0176	0.0199	–	–
m1 = 0.00067	0.0138	0.0152	0.0168	0.0186	0.0209	0.0218	–
m1 = 0.0007	0.0144	0.0159	0.0176	0.0197	0.0219	0.0229	33.17
m1 = 0.00074	0.0151	0.0168	0.0184	0.0207	0.0231	0.0241	–
m1 = 0.00077	0.0156	0.0172	0.0191	–	–	–	–
m1 = 0.00079	–	–	–	0.0217	0.0245	0.0256	–
m1 = 0.0008	0.0161	0.0178	0.0196	–	–	–	32.87
m1 = 0.00083	0.0165	0.0185	0.0203	0.0229	0.0253	0.0272	–
m1 = 0.00085	–	–	–	–	–	–	32.79
m1 = 0.00087	0.0168	0.0191	0.021	0.0237	0.0262	0.0282	–
m1 = 0.0009	–	–	–	–	–	–	32.84
m1 = 0.00091	0.0171	0.0195	0.0216	0.0245	0.0271	0.0293	–
m1 = 0.00095	0.0175	0.02	0.0223	0.0254	0.028	0.0305	–
m1 = 0.001	0.0179	0.0205	0.0228	0.0262	0.0289	0.0319	32.76
m1 = 0.00105	0.0183	0.0209	0.0234	0.027	0.0299	0.0334	–
m1 = 0.0011	–	–	–	–	–	–	32.75
m1 = 0.00111	0.0187	0.0212	0.024	0.0277	0.0308	0.0349	–
m1 = 0.00118	0.0191	0.0217	0.0244	0.0285	0.0318	0.036	–
m1 = 0.0012	–	–	–	–	–	–	32.81
m1 = 0.00125	0.0195	0.0221	0.025	0.0293	0.0327	0.0374	–
m1 = 0.00134	0.0199	0.0225	0.0257	0.0301	0.0335	0.0384	–
m1 = 0.00143	0.0203	0.0229	0.0264	0.031	0.0347	0.0394	–
m1 = 0.0015	–	–	–	–	–	–	32.59
m1 = 0.00154	0.0208	0.0235	0.027	0.0319	0.0357	0.0404	–
m1 = 0.0016	0.0211	0.0237	–	–	–	0.0413	–
m1 = 0.00163	–	–	0.0277	–	–	–	–
m1 = 0.00167	0.0214	0.0242	–	0.0327	0.037	0.042	–
m1 = 0.0017	–	–	0.028	–	–	–	–
m1 = 0.00174	0.0217	0.0247	–	0.0331	0.0376	0.0427	–
m1 = 0.00178	–	–	0.0285	–	–	–	–
m1 = 0.00182	0.0221	0.0251	–	0.0336	0.0383	0.0434	–
m1 = 0.00186	–	–	0.0291	–	–	–	–
m1 = 0.00191	0.0225	0.0256	–	0.0343	0.039	0.044	–
m1 = 0.002	0.023	0.0263	0.0301	0.0349	0.0399	0.0451	32.62
